19 compounds from patent publication US9815787B2, “Sulfonamide derivative or pharmaceutically acceptable acid addition salt thereof” (UNIVERSITY OF TSUKUBA, priority 2013, dated 2017) can be followed below.

This assay concerns the target T1, OX2R (Homo sapiens, UniProt O43614).
T1 construct: expressed in transfected cells; host or cells: CHO (Chinese hamster ovary) cells constitutively expressing the OX2R gene and NFAT-luciferase (CHOOX2R)
T1 sequence (O43614 1-444): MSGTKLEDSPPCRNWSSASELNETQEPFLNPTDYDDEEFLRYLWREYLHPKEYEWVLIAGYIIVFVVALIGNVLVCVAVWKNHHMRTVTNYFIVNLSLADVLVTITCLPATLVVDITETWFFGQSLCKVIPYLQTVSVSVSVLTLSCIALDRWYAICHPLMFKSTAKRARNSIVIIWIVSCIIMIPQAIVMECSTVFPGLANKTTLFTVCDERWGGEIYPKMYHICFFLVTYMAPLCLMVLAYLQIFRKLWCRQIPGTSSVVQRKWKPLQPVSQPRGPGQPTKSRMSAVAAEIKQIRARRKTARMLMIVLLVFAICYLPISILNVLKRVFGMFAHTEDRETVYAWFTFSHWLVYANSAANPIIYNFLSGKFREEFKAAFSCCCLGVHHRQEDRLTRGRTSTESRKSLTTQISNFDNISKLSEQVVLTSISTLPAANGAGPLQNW
Nature of the assay: Evaluation of agonist activity against OX2R (CHOOX2R cells, Fura2AM fluorescence, FDSS3000). Format: cell-based. Here is the method:
Evaluation of Agonist Activity Against OX2R
NFAT-luciferase gene and OX2R gene were each constitutively expressed in CHO cell, which is a cell line derived from Chinese hamster ovary to establish a cell line (CHOOX2R). The cells thereof were sown on a 96 well plate at 10000 cells/well, and cultured in a 5% FBS-added DMEM medium for 48 hr. […] After washing, HEPES buffer (75 μL) was added, a test compound solution (25 μL) was added, and changes in the fluorescence intensity were measured by FDSS3000 (Hamamatsu Photonics K.K.). The test compound was dissolved in DMSO (final concentration of DMSO was 1%), and diluted with HEPES buffer to a final concentration of 0.1 μM, 1.0 μM or 10 μM.

Setting [1] is: test compound 0.1 μM; relative to orexin-A as full agonist (100%); CHOOX2R cells.
Setting [2] is: test compound 1.0 μM; relative to orexin-A as full agonist (100%); CHOOX2R cells.
The mark [3] stands for this setting: test compound 10 μM; relative to orexin-A as full agonist (100%); CHOOX2R cells.
[4] abbreviates: test compound 0.1 μM; CHOOX2R cells; relative to orexin-A as full agonist (100%).
[5] abbreviates: test compound 1.0 μM; CHOOX2R cells; relative to orexin-A as full agonist (100%).
Setting [6] is: test compound 10 μM; CHOOX2R cells; relative to orexin-A as full agonist (100%).

Regarding `COc1cccc(C(=O)NCCNc2cccc(NS(=O)(=O)c3cc(-c4ccccc4F)ccc3OC)c2)c1` [Example 2, N-(2-((3-(2′-fluoro-4-methoxy-[1,1′-biphenyl]-3-ylsulfonamide)phenyl)amino)ethyl)-3-methoxybenzamide], the “Response (0.1 μM (%))” value under setting [1] is listed as <5%. Under setting [2], the “Response (1.0 μM (%))” value came to 27%. In addition, the “Response (10 μM (%))” value under setting [3] is 67%.

As for `COc1ccc(-c2cccc(C(=O)N(C)C)c2)cc1S(=O)(=O)Nc1cccc(NCCNC(=O)c2occc2C)c1` [Example 68, N-(2-((3-(3′-(dimethylcarbamoyl)-4-methoxy-[1,1′-biphenyl]-3-ylsulfonamido)phenyl)amino)ethyl)-3-methylfuran-2-carboxamide], under setting [4], the “Response (0.1 μM (%))” value is given as 42%. For the same compound, the “Response (1.0 μM (%))” value under setting [5] is reported as 86%. The “Response (10 μM (%))” value under setting [6] was found to be 74%.

Consider `COc1cccc(C(=O)NCCNc2cccc(NS(=O)(=O)c3cc(-c4ccccc4C)ccc3OC)c2)c1` [Example 21, 3-methoxy-N-(2-((3-(4-methoxy-2′-methyl-[1,1′-biphenyl]-3-ylsulfonamide)phenyl)amino)ethyl)benzamide], for which the “Response (0.1 μM (%))” value under setting [1] is <5%. In addition, the “Response (1.0 μM (%))” value under setting [2] is on record as <5%. Besides, the “Response (10 μM (%))” value under setting [3] is given as 11%.

Consider `COc1ccccc1C(=O)NCCNc1cccc(NS(=O)(=O)c2cc(-c3cccc(NCC(C)C)c3)ccc2OC)c1` [Example 38, N-(2-((3-(3′-(isobutylamino)-4-methoxy-[1,1′-biphenyl]-3-ylsulfonamide)phenyl)amino)ethyl)-2-methoxybenzamide], for which the “Response (0.1 μM (%))” value under setting [4] is listed as 8%. The “Response (1.0 μM (%))” value under setting [5] is 37%. Under setting [6], the “Response (10 μM (%))” value is reported as 113%.

In the case of `CCOc1ccc(-c2cccc(C(=O)N(C)C)c2)cc1S(=O)(=O)Nc1cccc(NCCNC(=O)c2ccccc2OC)c1` [Example 108, 4′-ethoxy-3′-(N-(3-((2-(2-methoxybenzamido)ethyl)amino)phenyl)sulfamoyl)-N,N-dimethyl-[1,1′-biphenyl]-3-carboxamide], the “Response (0.1 μM (%))” value under setting [1] came to 44%. Under setting [2], the “Response (1.0 μM (%))” value was 81%. Besides, the “Response (10 μM (%))” value under setting [3] is on record as 82%.

As for `COc1cccc(C(=O)NCCNc2cccc(NS(=O)(=O)c3cc(-c4ccccc4Cl)ccc3OC)c2)c1` [Example 11, N-(2-((3-(2′-chloro-4-methoxy-[1,1′-biphenyl]-3-ylsulfonamide)phenyl)amino)ethyl)-3-methoxybenzamide], the “Response (0.1 μM (%))” value under setting [1] is recorded as <5%. The “Response (1.0 μM (%))” value under setting [2] was 17%. Further, the “Response (10 μM (%))” value under setting [3] worked out at 23%.

Regarding `COc1ccccc1C(=O)NCCNc1cccc(NS(=O)(=O)c2cc(-c3c(F)cccc3F)ccc2OC)c1` [Example 17, N-(2-((3-(2′,6′-difluoro-4-methoxy-[1,1′-biphenyl]-3-ylsulfonamide)phenyl)amino)ethyl)-2-methoxybenzamide], under setting [1], the “Response (0.1 μM (%))” value was <5%. Also, the “Response (1.0 μM (%))” value under setting [2] stood at 18%. In addition, the “Response (10 μM (%))” value under setting [3] was 182%.

With `COc1cccc(C(=O)NCCNc2cccc(NS(=O)(=O)c3cc(-c4cccc(C(=O)N5CCCC5)c4)ccc3OC)c2)c1` [Example 86, 3-methoxy-N-(2-((3-(4-methoxy-3′-(pyrrolidine-1-carbonyl)-[1,1′-biphenyl]-3-ylsulfonamido)phenyl)amino)ethyl)benzamide], the “Response (0.1 μM (%))” value under setting [4] is listed as 10%. The “Response (1.0 μM (%))” value under setting [5] was found to be 89%. The “Response (10 μM (%))” value under setting [6] was 81%.

`COc1ccc(-c2cccc(C(=O)N(C)C)c2)cc1S(=O)(=O)Nc1cccc(NCCNC(=O)c2ccc(Cl)s2)c1` [Example 61, 5-chloro-N-(2-((3-(3′-(dimethylcarbamoyl)-4-methoxy-[1,1′-biphenyl]-3-ylsulfonamido)phenyl)amino)ethyl)thiophene-2-carboxamide]: under setting [4], the “Response (0.1 μM (%))” value is on record as <5%. Under setting [5], the “Response (1.0 μM (%))” value is 18%. For the same compound, the “Response (10 μM (%))” value under setting [6] was 69%.

`COc1ccc(-c2cccc(C(=O)N(C)C)c2)cc1S(=O)(=O)Nc1cccc(NCCNC(=O)c2cnccc2Cl)c1` [Example 57, 4-chloro-N-(2-((3-(3′-(dimethylcarbamoyl)-4-methoxy-[1,1′-biphenyl]-3-ylsulfonamido)phenyl)amino)ethyl)nicotinamide]: the “Response (0.1 μM (%))” value under setting [4] is <5%. The “Response (1.0 μM (%))” value under setting [5] was 9%. For the same compound, the “Response (10 μM (%))” value under setting [6] stood at 87%.

Turning to `COc1ccc(-c2cccc(C(=O)N(C)C)c2)cc1S(=O)(=O)Nc1cccc(NCCNC(=O)c2cncc(Cl)c2)c1` [Example 58, 5-chloro-N-(2-((3-(3′-(dimethylcarbamoyl)-4-methoxy-[1,1′-biphenyl]-3-ylsulfonamido)phenyl)amino)ethyl)nicotinamide], the “Response (0.1 μM (%))” value under setting [4] is listed as <5%. Also, the “Response (1.0 μM (%))” value under setting [5] is on record as 130%. Besides, the “Response (10 μM (%))” value under setting [6] was 119%.

As for `COc1ccccc1C(=O)NCCNc1cccc(NS(=O)(=O)c2cccc(-c3cccc(C(=O)N(C)C)c3)c2)c1` [Example 110, 3′-(N-(3-((2-(2-methoxybenzamido)ethyl)amino)phenyl)sulfamoyl)-N,N-dimethyl-[1,1′-biphenyl]-3-carboxamide], the “Response (0.1 μM (%))” value under setting [1] is recorded as <5%. Also, the “Response (1.0 μM (%))” value under setting [2] is recorded as <5%. The “Response (10 μM (%))” value under setting [3] is reported as 28%.

Turning to `COc1ccccc1C(=O)NCCNc1cccc(NS(=O)(=O)c2cc(-c3cccc(C(=O)N(C)C(C)(C)C)c3)ccc2OC)c1` [Example 76, N-(tert-butyl)-4′-methoxy-3′-(N-(3-((2-(2-methoxybenzamido)ethyl)amino)phenyl)sulfamoyl)-N-methyl-[1,1′-biphenyl]-3-carboxamide], under setting [4], the “Response (0.1 μM (%))” value came to 24%. The “Response (1.0 μM (%))” value under setting [5] stood at 95%. Besides, the “Response (10 μM (%))” value under setting [6] was 98%.

As to `COc1cccc(C(=O)NCCNc2cccc(NS(=O)(=O)c3cc(-c4cccc(OC)c4)ccc3OC)c2)c1` [Example 31, N-(2-((3-(3′,4-dimethoxy-[1,1′-biphenyl]-3-ylsulfonamide)phenyl)amino)ethyl)-3-methoxybenzamide], the “Response (0.1 μM (%))” value under setting [1] amounted to 6%. For the same compound, the “Response (1.0 μM (%))” value under setting [2] worked out at 67%. In addition, under setting [3], the “Response (10 μM (%))” value stood at 103%.

`COc1cccc(C(=O)NCCNc2cccc(NS(=O)(=O)c3cc(-c4cc(OC)ccc4F)ccc3OC)c2)c1` [Example 35, N-(2-((3-(2′-fluoro-4,5′-dimethoxy-[1,1′-biphenyl]-3-ylsulfonamide)phenyl)amino)ethyl)-3-methoxybenzamide]: under setting [4], the “Response (0.1 μM (%))” value is 13%. The “Response (1.0 μM (%))” value under setting [5] was determined as 68%. The “Response (10 μM (%))” value under setting [6] turned out to be 127%.

On to `COc1ccc(-c2cccc(C(=O)N3CCCCC3)c2)cc1S(=O)(=O)Nc1cccc(NCCNC(=O)c2cccnc2OC)c1` [Example 91, 2-methoxy-N-(2-((3-(4-methoxy-3′-(piperidine-1-carbonyl)-[1,1′-biphenyl]-3-ylsulfonamido)phenyl)amino)ethyl)nicotinamide], for which the “Response (0.1 μM (%))” value under setting [4] was found to be 42%. Moreover, under setting [5], the “Response (1.0 μM (%))” value is given as 90%. The “Response (10 μM (%))” value under setting [6] came out at 80%.

Take `COc1ccc(Br)cc1C(=O)NCCNc1cccc(NS(=O)(=O)c2cc(-c3ccccc3F)ccc2OC)c1` [Example 4, 5-bromo-N-(2-((3-(2′-fluoro-4-methoxy-[1,1′-biphenyl]-3-ylsulfonamide)phenyl)amino)ethyl)-2-methoxybenzamide]: the “Response (0.1 μM (%))” value under setting [1] is reported as <5%. The “Response (1.0 μM (%))” value under setting [2] is <5%. Further, the “Response (10 μM (%))” value under setting [3] is given as 17%.

In the case of `COc1ccc(-c2ccccc2F)cc1S(=O)(=O)Nc1cccc(NCCNC(=O)c2ccccc2Cl)c1` [Example 7, 2-chloro-N-(2-((3-(2′-fluoro-4-methoxy-[1,1′-biphenyl]-3-ylsulfonamide)phenyl)amino)ethyl)benzamide], under setting [1], the “Response (0.1 μM (%))” value worked out at 10%. Besides, the “Response (1.0 μM (%))” value under setting [2] stood at 62%. Further, the “Response (10 μM (%))” value under setting [3] is reported as 145%.

With `COc1ccc(-c2cccc(C(=O)N3CCCCC3)c2)cc1S(=O)(=O)Nc1cccc(NCCNC(=O)c2ccccc2F)c1` [Example 90, 2-fluoro-N-(2-((3-(4-methoxy-3′-(piperidine-1-carbonyl)-[1,1′-biphenyl]-3-ylsulfonamido)phenyl)amino)ethyl)benzamide], the “Response (0.1 μM (%))” value under setting [4] was found to be 51%. Also, the “Response (1.0 μM (%))” value under setting [5] is on record as 68%. The “Response (10 μM (%))” value under setting [6] is given as 88%.
